# Reference: patent US20190307783A1, “USE OF ANTIVIRALS TO INHIBIT PROTOZOAN VIRUSES” (priority 2016, published 2019)
# Read-outs that look alike come from different tables or passages of the source.
# Legend:
# [1] = system: LRV1 (LgyLRV1 capsid levels); experiment: microbe, parasite or virus in culture; conditions: for Effect on LRV1 (capsid) levels, in words: screen at 100 μM or maximum concentration permitted by solubility
# Text: Because LRV1 (like most Totiviridae) is not shed from the cell (33, 34), we developed a flow cytometric assay to measure intracellular LRV1 capsid levels on a per cell basis. To detect LRV1 we used binding to a rabbit anti-LgyLRV1 capsid antiserum (35) followed by detection with Alexa Fluor488-conjugated goat anti-rabbit IgG.
# (§1) Parasites were inoculated at 2×10^5 cells/mL into Schneider's media lacking supplemental adenine.
# For capsid flow cytometry, 10^7 cells were fixed at room temperature using 2% (wt/vol) paraformaldehyde (Thermo Fisher Scientific) in PBS for 2 minutes. They were then incubated in blocking buffer [10% (vol/vol) normal goat serum (Vector Laboratories, Burlingame, Calif., USA) and 0.2% TRITON X-100 in PBS] for 30 minutes at room temperature. Anti-LgyLRV1 capsid antibody (35) was added (1:20,000 dilution) and incubated at room temperature for 1 hour. After two washes with PBS, cells were resuspended in 200 μL PBS with Alexa Fluor488-labeled goat anti-rabbit IgG (Alexafluor, Invitrogen; 1:1,000; or Thermo Fisher Scientific; 1:2,000 dilution), and incubated 1 hour at room temperature. After two additional washes with PBS, cells were subjected to flow cytometry, gating for single cells using forward and side scatter and the data analyzed using […] software (BD Bioscience, San Jose, Calif., USA).
# L. guyanensis (LgyLRV1+) = experiment: Drug-inhibition test: growth of LgyLRV1+ parasites; format: cell-based, Leishmania guyanensis; conditions: for Population doubling time: untreated ˜7.7 hours
# Description: These compounds were examined for their ability to inhibit the growth of LgyLRV1^+ and virus levels by LRV1 capsid flow cytometry.
# Most studies were performed using luciferase-expressing transfectants of L. guyanensis (MHOM/BR/78/M4147) described previously [LRV1^+ LgyM4147/SSU:IR2SAT-LUC(b)c3 and LRV^−LgyM4147/pX63HYG/SSU:IR2SAT-LUC(b)c4] (54); these lines are termed LgyLRV1^+ and LgyLRV1^−, respectively. Two strains of LRV1^+L. braziliensis were examined: LEM2780 (MHOM/BO/90/CS) and LEM3874 (MHOM/BO/99/IMT252 no. 3) (12). Parasites were grown in Schneider's media (Sigma Aldrich, St. Louis, Mo., USA) prepared according to the supplier's instructions with pH adjusted to 6.5 and supplemented with 0.76 mM hemin, 2 μg/mL biopterin, 50 U/mL penicillin, 50 μg/mL streptomycin, and 10% (vol/vol) heat-inactivated FBS. Cell concentrations were determined using a Coulter Counter ([…], Indianapolis, Ind., USA).
# as §1
# [2] = 48 h, read-out: Percent control (LRV1 capsid)
# [3] = LgyLRV1+, tested at 100 μM, 2 days
# [4] = Leishmania guyanensis, 48 h, LgyLRV1+, tested at 100 μM, growth after 2 days, read-out: Percent control (density)
# [5] = LgyLRV1+, tested at 100 μM, growth after 2 days
# [6] = LgyLRV1+, tested at 50 μM, 2 days
# [7] = LgyLRV1+, tested at 50 μM, growth after 2 days
# [8] = LgyLRV1+, tested at 40 μM, 2 days
# [9] = Leishmania guyanensis, 48 h, LgyLRV1+, tested at 40 μM, growth after 2 days, read-out: Percent control (density)
# [10] = LgyLRV1+, tested at 40 μM, growth after 2 days
# [11] = Leishmania guyanensis, 48 h, read-out: Percent control (density)
# [12] = LgyLRV1+, tested at 1 μM, 2 days
# [13] = Leishmania guyanensis, 48 h, LgyLRV1+, tested at 1 μM, growth after 2 days, read-out: Percent control (density)
# [14] = LgyLRV1+, tested at 1 μM, growth after 2 days
SMILES,"activity at 100 µM [1, 2] [%]","LRV1 capsid (geometric mean FU) [1, 3] [FU]",activity at 100 µM (L. guyanensis (LgyLRV1+); [4]) [%],Density (cells/mL) (L. guyanensis (LgyLRV1+); [5]),also measured
C[C@H]1O[C@@H](n2cc(F)c(=O)[nH]c2=O)[C@H](O)[C@@H]1O [5-Fluoro-5′-deoxyuridine],88,234,28,4.71E+6,
O=c1[nH]cc(F)c(=O)[nH]1 [5-Fluorouracil],193,,5,9.05E+5,LRV1 capsid (geometric mean FU) [1]: 512 FU
O=c1[nH]cnc2nn[nH]c12 [8-Azahypoxanthine],95,251,77,1.29E+7,
Nc1nc2c(ncn2COCCO)c(=O)[nH]1 [Acyclovir],,,,,"activity at 120 µM [1, 2]: 259%; activity at 120 µM (L. guyanensis (LgyLRV1+); Leishmania guyanensis, 48 h, LgyLRV1+, tested at 120 μM, growth after 2 days, read-out: Percent control (density)): 51%; Density (cells/mL) (L. guyanensis (LgyLRV1+); LgyLRV1+, tested at 120 μM, growth after 2 days): 8.55E+6 cells/mL"
Oc1ncnc2[nH]ncc12 [Allopurinol],34,90,2,4.06E+5,"Inhibition of LRV1 capsid levels ([1]; highest concentration tested, 48-hour propagation (FIG. 18A)): 60%; Inhibition of L. guyanensis growth (L. guyanensis (LgyLRV1+); highest concentration tested, 48-hour propagation, growth rate (FIG. 18A)): 30%"
"CCCNC(=O)[C@H]1O[C@@H]1C(=O)N[C@H](C(=O)N1CCC[C@H]1C(=O)OC)[C@@H](C)CC [CA-074-Me, CA-074 Me]",,,,,"LRV1 capsid (geometric mean FU) [1, 6]: 83 FU; Percent control (LRV1 capsid) [1, 6]: 31 Percent control; Effect on LRV1 (capsid) levels, in words ([1]; 2 days): only minimal effects; Density (cells/mL) (L. guyanensis (LgyLRV1+); [7]): 1.00E+07 cells/mL; Percent control (density) (L. guyanensis (LgyLRV1+); [7]): 60 Percent control; Effect on L. guyanensis growth, in words (L. guyanensis (LgyLRV1+); screen at 100 μM or maximum concentration permitted by solubility, 2 days): no effects"
"C[C@@H]1C[C@@H]([C@H](O)CC2CC(=O)NC(=O)C2)C(=O)[C@@H](C)C1 [CHX, cycloheximide]",,,,,"LRV1 capsid levels under growth-inhibiting agent, in words ([1]; LgyLRV1+, 48-hour propagation in increasing concentrations): unaffected; Population doubling time (L. guyanensis (LgyLRV1+); L. guyanensis at 10 nM): 11.2 h; Population doubling time (L. guyanensis (LgyLRV1+); L. guyanensis at 100 nM): 44.7 h"
"CCCC(=O)O[C@H]1CN2CC[C@H](O)[C@@H]2[C@@H](O)[C@@H]1O [Celgosivir, 6-O-butanoyl castanospermine]",,,,,"activity at 10 µM [1, 2]: 47%; LRV1 capsid (geometric mean FU) ([1]; LgyLRV1+, tested at 10 μM, 2 days): 124 FU; activity at 10 µM (L. guyanensis (LgyLRV1+); Leishmania guyanensis, 48 h, LgyLRV1+, tested at 10 μM, growth after 2 days, read-out: Percent control (density)): 65%; Density (cells/mL) (L. guyanensis (LgyLRV1+); LgyLRV1+, tested at 10 μM, growth after 2 days): 1.09E+7 cells/mL"
"CN(C)c1ncnc2c1ncn2[C@@H]1O[C@H](CO)[C@@H](O)[C@H]1O [Chembridge 5790592, N,N-dimethyl adenosine]",108,,1,1.00E+5,LRV1 capsid (geometric mean FU) [1]: 287 FU
Nc1ccn(C[C@@H](CO)OCP(=O)(O)O)c(=O)n1 [Cidofovir],,,,,"activity at 40 µM [1, 2]: 240%; LRV1 capsid (geometric mean FU) [1, 8]: 637 FU; activity at 40 µM (L. guyanensis (LgyLRV1+); [9]): 59%; Density (cells/mL) (L. guyanensis (LgyLRV1+); [10]): 9.99E+6 cells/mL"
"O=c1nc[nH]c(=O)[nH]1 [Compound 5-Azauracil, 5-Azauracil]",95,,,,LRV1 capsid (geometric mean FU) [1]: 252 FU; Density (cells/mL) (L. guyanensis (LgyLRV1+)): 1.13E+7 cells/mL; activity at 100 µM (L. guyanensis (LgyLRV1+); [11]): 67%
"O=c1cn[nH]c(=O)[nH]1 [Compound 6-Azauracil, 6-Azauracil]",102,,71,1.20E+7,LRV1 capsid (geometric mean FU) [1]: 271 FU
"Nc1nc2nn[nH]c2c(=O)[nH]1 [Compound 8-Azaguanine, 8-Azaguanine]",100,,34,5.68E+6,LRV1 capsid (geometric mean FU) [1]: 264 FU
"[N-]=[N+]=N[C@]1(CO)O[C@@H](n2ccc(N)nc2=O)[C@H](O)[C@@H]1O [Compound R-1479, 4′-Azido cytidine]",43,114,73,1.23E+7,
"NC(=O)c1nc(F)c[nH]c1=O [Compound T-705, Favipiravir]",60,161,67,1.13E+7,
O=c1[nH]cnc2c1ncn2[C@H]1CC[C@@H](CO)O1 [Didanosine],68,182,,1.80E+7,activity at 100 µM (L. guyanensis (LgyLRV1+); [11]): 107%
C=C1[C@H](CO)[C@@H](O)C[C@@H]1n1cnc2c(=O)[nH]c(N)nc21 [Entecavir],45,119,105,1.77E+7,
"O=C(O)P(=O)(O)O [Foscarnet, Phosphonoformic acid]",61,162,56,9.50E+6,"Effect on LRV1 (capsid) levels, in words ([1]; 2 days): not significantly affected"
Nc1nc(O)c2ncn(COC(CO)CO)c2n1 [Ganciclovir],,,,,"activity at 40 µM [1, 2]: 75%; LRV1 capsid (geometric mean FU) [1, 8]: 198 FU; activity at 40 µM (L. guyanensis (LgyLRV1+); [9]): 58%; Density (cells/mL) (L. guyanensis (LgyLRV1+); [10]): 9.78E+6 cells/mL"
COc1c(C)c2c(c(O)c1C/C=C(\C)CCC(=O)O)C(=O)OC2 [Mycophenolic acid],,,,,"activity at 1 µM [1, 2]: 90%; LRV1 capsid (geometric mean FU) [1, 12]: 238 FU; activity at 1 µM (L. guyanensis (LgyLRV1+); [13]): 3%; Density (cells/mL) (L. guyanensis (LgyLRV1+); [14]): 4.55E+5 cells/mL"
"C#C[C@@]1(O)[C@H](O)[C@@H](CO)O[C@H]1n1ccc2c(N)ncnc21 [NITD008, 7-(2-Ethynyl-β-D-ribofuranosyl)-7H-pyrrolo[2,3-d]pyrimidine-4-amine]",,,,,"activity at 1 µM [1, 2]: 37%; LRV1 capsid (geometric mean FU) [1, 12]: 98 FU; Effect on LRV1 (capsid) levels, in words ([1]; 2 days): little effect on LRV1; activity at 1 µM (L. guyanensis (LgyLRV1+); [13]): 61%; Density (cells/mL) (L. guyanensis (LgyLRV1+); [14]): 1.02E+7 cells/mL"
"CC(C)OC(=O)[C@H](C)N[P@](=O)(OC[C@H]1O[C@@H](n2ccc(=O)[nH]c2=O)[C@](C)(F)[C@@H]1O)Oc1ccccc1 [PSI-7977, 2-((5-(2,4-dioxo-3,4-dihydro-2H-pyrimidin-1-yl)-4-fluoro-3-hydroxy-4-methyltetrahydrofuranyl-2-methoxy)phenoxyphosphorylamino) propionic acid isopropyl ester]",61,163,74,1.25E+7,"Effect on LRV1 (capsid) levels, in words ([1]; 2 days): little effect on LRV1"
NC(=O)c1ncn([C@@H]2O[C@H](CO)[C@@H](O)[C@H]2O)n1 [Ribavirin],61,162,13,2.21E+6,
Cc1cn([C@H]2C=C[C@@H](CO)O2)c(=O)[nH]c1=O [Stavudine],83,220,95,1.60E+7,
[H]/N=C(/N)NS(=O)(=O)c1ccc(N)cc1 [Sulfaguanidine],98,260,68,1.15E+7,
"C[C@H](Cn1cnc2c(N)ncnc21)OCP(=O)(O)O.O [Tenofovir, Tenofovir monohydrate]",,206,,8.90E+6,"Percent control (LRV1 capsid) [1, 3]: 78 Percent control; Percent control (density) (L. guyanensis (LgyLRV1+); [5]): 53 Percent control"
Cc1cn([C@H]2C[C@H](N=[N+]=[N-])[C@@H](CO)O2)c(=O)[nH]c1=O [Zidovudine],74,196,,1.81E+7,activity at 100 µM (L. guyanensis (LgyLRV1+); [11]): 107%
